Assay results reported in US20210300936A1, “PYRAZOLOTRIAZOLOPYRIMIDINE DERIVATIVES AS A2A RECEPTOR ANTAGONIST” (BEIGENE, LTD., priority 2018, published 2021).

target: human A2A receptor (A2AR) (Homo sapiens, UniProt P29274); assay: Luciferase reporter assay (HEK293-A2AR-luc2p/CRE/Hygro cells, 3 nM CGS21680); type: cell-based; details: 3 nM CGS21680, 5 h incubation
Procedure, shortened: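 HEK293 cells stably expressing A2AR with a CRE-luc2P reporter were seeded in 1% FBS with 1 U/mL adenosine deaminase. After 18 h, cells got 3 nM CGS21680 plus antagonist at 0.1–10000 nM for 5 h, followed by a luciferase readout. IC50 is relative to the 3 nM CGS21680 signal, set as 100%.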

human A2A receptor (A2AR), sequence (P29274 whole entry): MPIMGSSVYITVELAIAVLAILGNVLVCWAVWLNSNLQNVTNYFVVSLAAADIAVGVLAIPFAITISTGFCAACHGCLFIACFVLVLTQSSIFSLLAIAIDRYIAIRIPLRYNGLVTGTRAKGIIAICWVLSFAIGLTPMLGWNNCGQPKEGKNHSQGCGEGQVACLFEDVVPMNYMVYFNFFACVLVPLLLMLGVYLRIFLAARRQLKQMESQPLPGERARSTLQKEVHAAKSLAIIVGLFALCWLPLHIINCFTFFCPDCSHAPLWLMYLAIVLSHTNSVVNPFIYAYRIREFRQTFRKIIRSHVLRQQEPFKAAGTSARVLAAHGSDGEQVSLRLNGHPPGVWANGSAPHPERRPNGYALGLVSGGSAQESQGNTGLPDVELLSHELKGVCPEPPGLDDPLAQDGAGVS

SMILES | IC50
Nc1nc2c(cnn2C(C(=O)N2CCCc3ccccc32)c2ccccc2)c2nc(-c3ccco3)nn12 (stereo not shown) [Compound B4, 2-(5-amino-2-(furan-2-yl)-7H-pyrazolo[4,3-e][1,2,4]triazolo[1,5-c]pyrimidin-7-yl)-1-(3,4-dihydroquinolin-1(2H)-yl)-2-phenylethan-1-one] | 2.9 nM
Nc1nc2c(cnn2C(C(=O)N2CCc3ccc(Cl)cc3C2)c2ccccc2)c2nc(-c3ccco3)nn12 (stereo not shown) [Compound B5, 2-(5-amino-2-(furan-2-yl)-7H-pyrazolo[4,3-e][1,2,4]triazolo[1,5-c]pyrimidin-7-yl)-1-(7-chloro-3,4-dihydroisoquinolin-2(1H)-yl)-2-phenylethan-1-one] | 3 nM
Nc1nc2c(cnn2C(C(=O)N2CCc3ccc(OC(F)(F)F)cc3C2)c2ccccc2)c2nc(-c3ccco3)nn12 (stereo not shown) [Compound B6, 2-(5-amino-2-(furan-2-yl)-7H-pyrazolo[4,3-e][1,2,4]triazolo[1,5-c]pyrimidin-7-yl)-2-phenyl-1-(7-(trifluoromethoxy)-3,4-dihydroisoquinolin-2(1H)-yl)ethan-1-one] | 7 nM
Nc1nc2c(cnn2C(C(=O)N2CCc3cc(F)ccc3C2)c2ccccc2)c2nc(-c3ccco3)nn12 (stereo not shown) [Compound B7, 2-(5-amino-2-(furan-2-yl)-7H-pyrazolo[4,3-e][1,2,4]triazolo[1,5-c]pyrimidin-7-yl)-1-(6-fluoro-3,4-dihydroisoquinolin-2(1H)-yl)-2-phenylethan-1-one] | 2 nM
Nc1nc2c(cnn2C(C(=O)N2CCc3ccncc3C2)c2ccccc2)c2nc(-c3ccco3)nn12 (stereo not shown) [Compound B8, 2-(5-amino-2-(furan-2-yl)-7H-pyrazolo[4,3-e][1,2,4]triazolo[1,5-c]pyrimidin-7-yl)-1-(3,4-dihydro-2,7-naphthyridin-2(1H)-yl)-2-phenylethan-1-one] | 4 nM
Nc1nc2c(cnn2C(C(=O)N2CCc3cccnc3C2)c2ccccc2)c2nc(-c3ccco3)nn12 (stereo not shown) [Compound B9, 2-(5-amino-2-(furan-2-yl)-7H-pyrazolo[4,3-e][1,2,4]triazolo[1,5-c]pyrimidin-7-yl)-1-(5,8-dihydro-1,7-naphthyridin-7(6H)-yl)-2-phenylethan-1-one] | 3.4 nM
Nc1nc2c(cnn2C(C(=O)N2CCc3cccc(F)c3C2)c2ccccc2)c2nc(-c3ccco3)nn12 (stereo not shown) [Compound B10, 2-(5-amino-2-(furan-2-yl)-7H-pyrazolo[4,3-e][1,2,4]triazolo[1,5-c]pyrimidin-7-yl)-1-(8-fluoro-3,4-dihydroisoquinolin-2(1H)-yl)-2-phenylethan-1-one] | 0.8 nM
Nc1nc2c(cnn2C(C(=O)N2CCc3ccc(F)cc3C2)c2ccccc2)c2nc(-c3ccco3)nn12 (stereo not shown) [Compound B11, 2-(5-amino-2-(furan-2-yl)-7H-pyrazolo[4,3-e][1,2,4]triazolo[1,5-c]pyrimidin-7-yl)-1-(7-fluoro-3,4-dihydroisoquinolin-2(1H)-yl)-2-phenylethan-1-one] | 2.2 nM
Nc1nc2c(cnn2C(C(=O)N2CCc3c(F)cccc3C2)c2ccccc2)c2nc(-c3ccco3)nn12 (stereo not shown) [Compound B12, 2-(5-amino-2-(furan-2-yl)-7H-pyrazolo[4,3-e][1,2,4]triazolo[1,5-c]pyrimidin-7-yl)-1-(5-fluoro-3,4-dihydroisoquinolin-2(1H)-yl)-2-phenylethan-1-one] | 2.5 nM
Nc1nc2c(cnn2C(C(=O)N2CCc3ncccc3C2)c2ccccc2)c2nc(-c3ccco3)nn12 (stereo not shown) [Compound B13, 2-(5-amino-2-(furan-2-yl)-7H-pyrazolo[4,3-e][1,2,4]triazolo[1,5-c]pyrimidin-7-yl)-1-(7,8-dihydro-1,6-naphthyridin-6(5H)-yl)-2-phenylethan-1-one] | 2.8 nM
COCCOc1ccc2c(c1)CN(C(=O)C(c1ccccc1)n1ncc3c1nc(N)n1nc(-c4ccco4)nc31)CC2 (stereo not shown) [Compound B14, 2-(5-amino-2-(furan-2-yl)-7H-pyrazolo[4,3-e][1,2,4]triazolo[1,5-c]pyrimidin-7-yl)-1-(7-(2-methoxyethoxy)-3,4-dihydroisoquinolin-2(1H)-yl)-2-phenylethan-1-one] | 5.7 nM
COCCOc1ccc2c(c1)CCN(C(=O)C(c1ccccc1)n1ncc3c1nc(N)n1nc(-c4ccco4)nc31)C2 (stereo not shown) [Compound B15, 2-(5-amino-2-(furan-2-yl)-7H-pyrazolo[4,3-e][1,2,4]triazolo[1,5-c]pyrimidin-7-yl)-1-(6-(2-methoxyethoxy)-3,4-dihydroisoquinolin-2(1H)-yl)-2-phenylethan-1-one] | 2.2 nM
COCCOc1cccc2c1CN(C(=O)C(c1ccccc1)n1ncc3c1nc(N)n1nc(-c4ccco4)nc31)CC2 (stereo not shown) [Compound B16, 2-(5-amino-2-(furan-2-yl)-7H-pyrazolo[4,3-e][1,2,4]triazolo[1,5-c]pyrimidin-7-yl)-1-(8-(2-methoxyethoxy)-3,4-dihydroisoquinolin-2(1H)-yl)-2-phenylethan-1-one] | 5.6 nM
Cc1ccc2c(c1)CN(C(=O)C(c1ccccc1)n1ncc3c1nc(N)n1nc(-c4ccco4)nc31)CC2 (stereo not shown) [Compound B17, 2-(5-amino-2-(furan-2-yl)-7H-pyrazolo[4,3-e][1,2,4]triazolo[1,5-c]pyrimidin-7-yl)-1-(7-methyl-3,4-dihydroisoquinolin-2(1H)-yl)-2-phenylethan-1-one] | 1.3 nM
CC(C(=O)N1CCc2ccccc2C1)(c1ccccc1)n1ncc2c1nc(N)n1nc(-c3ccco3)nc21 (stereo not shown) [Compound B18, 2-(5-amino-2-(furan-2-yl)-7H-pyrazolo[4,3-e][1,2,4]triazolo[1,5-c]pyrimidin-7-yl)-1-(3,4-dihydroisoquinolin-2(1H)-yl)-2-phenylpropan-1-one] | 111 nM
CC(C(=O)N1CCc2cc(F)ccc2C1)(c1ccccc1)n1ncc2c1nc(N)n1nc(-c3ccco3)nc21 (stereo not shown) [Compound B19, 2-(5-amino-2-(furan-2-yl)-7H-pyrazolo[4,3-e][1,2,4]triazolo[1,5-c]pyrimidin-7-yl)-1-(6-fluoro-3,4-dihydroisoquinolin-2(1H)-yl)-2-phenylpropan-1-one] | 112 nM
CN(C)C(=O)C(C)(c1ccccc1)n1ncc2c1nc(N)n1nc(-c3ccco3)nc21 (stereo not shown) [Compound B20, 2-(5-amino-2-(furan-2-yl)-7H-pyrazolo[4,3-e][1,2,4]triazolo[1,5-c]pyrimidin-7-yl)-N,N-dimethyl-2-phenylpropanamide] | 20 nM
CC(C(=O)N1CCNCC1)(c1ccccc1)n1ncc2c1nc(N)n1nc(-c3ccco3)nc21 (stereo not shown) [Compound B21, 2-(5-amino-2-(furan-2-yl)-7H-pyrazolo[4,3-e][1,2,4]triazolo[1,5-c]pyrimidin-7-yl)-2-phenyl-1-(piperazin-1-yl)propan-1-one] | 96.7 nM
CC(C(=O)N1CC2(COC2)C1)(c1ccccc1)n1ncc2c1nc(N)n1nc(-c3ccco3)nc21 (stereo not shown) [Compound B22, 2-(5-amino-2-(furan-2-yl)-7H-pyrazolo[4,3-e][1,2,4]triazolo[1,5-c]pyrimidin-7-yl)-2-phenyl-1-(2-oxa-6-azaspiro[3.3]heptan-6-yl)propan-1-one] | 16 nM
CC(C(=O)N1CCCC1)(c1ccccc1)n1ncc2c1nc(N)n1nc(-c3ccco3)nc21 (stereo not shown) [Compound B23, 2-(5-amino-2-(furan-2-yl)-7H-pyrazolo[4,3-e][1,2,4]triazolo[1,5-c]pyrimidin-7-yl)-2-phenyl-1-(pyrrolidin-1-yl)propan-1-one] | 24.9 nM
CC(C(=O)N1CCC1)(c1ccccc1)n1ncc2c1nc(N)n1nc(-c3ccco3)nc21 (stereo not shown) [Compound B24, 2-(5-amino-2-(furan-2-yl)-7H-pyrazolo[4,3-e][1,2,4]triazolo[1,5-c]pyrimidin-7-yl)-1-(azetidin-1-yl)-2-phenylpropan-1-one] | 12 nM
CC1(O)CCN(C(=O)C(C)(c2ccccc2)n2ncc3c2nc(N)n2nc(-c4ccco4)nc32)CC1 (stereo not shown) [Compound B25, 2-(5-amino-2-(furan-2-yl)-7H-pyrazolo[4,3-e][1,2,4]triazolo[1,5-c]pyrimidin-7-yl)-1-(4-hydroxy-4-methylpiperidin-1-yl)-2-phenylpropan-1-one] | 23.7 nM
CC(C(=O)N1CC2(CCOCC2)C1)(c1ccccc1)n1ncc2c1nc(N)n1nc(-c3ccco3)nc21 (stereo not shown) [Compound B26, 2-(5-amino-2-(furan-2-yl)-7H-pyrazolo[4,3-e][1,2,4]triazolo[1,5-c]pyrimidin-7-yl)-2-phenyl-1-(7-oxa-2-azaspiro[3.5]nonan-2-yl)propan-1-one] | 15.4 nM
CN1CCN(C(=O)C(C)(c2ccccc2)n2ncc3c2nc(N)n2nc(-c4ccco4)nc32)CC1 (stereo not shown) [Compound B27, 2-(5-amino-2-(furan-2-yl)-7H-pyrazolo[4,3-e][1,2,4]triazolo[1,5-c]pyrimidin-7-yl)-1-(4-methylpiperazin-1-yl)-2-phenylpropan-1-one] | 30.3 nM
CO[C@H]1CCCN(C(=O)C(C)(c2ccccc2)n2ncc3c2nc(N)n2nc(-c4ccco4)nc32)C1 (stereo partly drawn) [Compound B28, 2-(5-amino-2-(furan-2-yl)-7H-pyrazolo[4,3-e][1,2,4]triazolo[1,5-c]pyrimidin-7-yl)-1-((S)-3-methoxypiperidin-1-yl)-2-phenylpropan-1-one] | 33.5 nM
CO[C@H]1CCN(C(=O)C(C)(c2ccccc2)n2ncc3c2nc(N)n2nc(-c4ccco4)nc32)C1 (stereo partly drawn) [Compound B29, 2-(5-amino-2-(furan-2-yl)-7H-pyrazolo[4,3-e][1,2,4]triazolo[1,5-c]pyrimidin-7-yl)-1-((S)-3-methoxypyrrolidin-1-yl)-2-phenylpropan-1-one] | 76.5 nM
CO[C@@H]1CCN(C(=O)C(C)(c2ccccc2)n2ncc3c2nc(N)n2nc(-c4ccco4)nc32)C1 (stereo partly drawn) [Compound B30, 2-(5-amino-2-(furan-2-yl)-7H-pyrazolo[4,3-e][1,2,4]triazolo[1,5-c]pyrimidin-7-yl)-1-((R)-3-methoxypyrrolidin-1-yl)-2-phenylpropan-1-one] | 97.3 nM
CO[C@@H]1CCCN(C(=O)C(C)(c2ccccc2)n2ncc3c2nc(N)n2nc(-c4ccco4)nc32)C1 (stereo partly drawn) [Compound B31, 2-(5-amino-2-(furan-2-yl)-7H-pyrazolo[4,3-e][1,2,4]triazolo[1,5-c]pyrimidin-7-yl)-1-((R)-3-methoxypiperidin-1-yl)-2-phenylpropan-1-one] | 46 nM
